PMC7859440, “Transporter Gene Regulation in Sandwich Cultured Human Hepatocytes Through the Activation of Constitutive Androstane Receptor (CAR) or Aryl Hydrocarbon Receptor (AhR)” (Frontiers in Pharmacology, 2021)
Where “and” joins values, the source holds several entries; their conditions need not be identical. Equal values may be shown once.

Key:
CYP1A2 = details: SCHH, 72 h; TCDD 50 nM, OP 50 µM, CITCO 5 µM, PB 1,000 µM (highest conc.); mean ± SD, three donors
Experimental: (§1) Cryopreserved human hepatocytes were quickly thawed at 37°C and then transferred into hepatocyte thawing medium. Cells were pelleted at 100 × g for 10 min and then resuspended in hepatocyte complete plating medium (CP medium). The cells were then seeded at 65,000 cells per well in 96-well collagen I coated plates. After cell attachment (4–6 h post-seeding), CP medium was exchanged for ice-cold complete incubation medium (HI medium) containing BD Matrigel™ at the concentration of 0.25 mg/ml. The cells were then incubated overnight at 37°C in a humidified 5% CO2 incubator. […] Cell death or loss of adhesion of hepatocytes during or after treatment were examined by microscopy.
A RNeasy 96 Kit (Qiagen) was used to extract the total cellular RNA from sandwich cultured hepatocytes in 96-well plates following the manufacturer's instructions. A total volume of 200 μL RNA was obtained via the column elution provided in the RNeasy kit. […] Gene expression for each condition is expressed as a fold-change of mean ± standard deviation (SD) from three independent donors (each performed in triplicate). […]

CYP2B6 = experiment: in vitro; details: human
Experimental: as §1
(§2) A RNeasy 96 Kit (Qiagen) was used to extract the total cellular RNA from sandwich cultured hepatocytes in 96-well plates following the manufacturer's instructions. A total volume of 200 μL RNA was obtained via the column elution provided in the RNeasy kit. Five μL RNA extraction was mixed with TaqMan® Fast Virus 1-Step Master Mix (Life Technologies) in a final reaction volume of 20 μL and qRT-PCR was achieved using a QuantStudio 6 Flex Real-Time PCR System (Life Technologies), following the manufacturer's instructions. β-actin mRNA expression in the SCHH was used as a house-keeping gene for the normalization of target gene expressions. The mRNA levels in SCHH treated with AhR or CAR activators were expressed by a fold change, compared to the gene expressions without the treatment. […] Gene expression for each condition is expressed as a fold-change of mean ± standard deviation (SD) from three independent donors (each performed in triplicate). All primer and probe sets were purchased from Life Technologies (Table 2). When concentration-dependent induction observed, the in vitro induction mRNA data were fitted using the sigmoid 3-parameter equation in GraphPad Prism (La Jolla, CA) to estimate the in vitro concentration of inducer that produced half the maximum induction values (EC50).

CYP3A4 = experiment: in vitro; details: human
Experimental: as §1, §2

UGT1A1 = experiment: gene induction in sandwich-cultured human hepatocytes (qRT-PCR)
Experimental: as §1
(§3) A RNeasy 96 Kit (Qiagen) was used to extract the total cellular RNA from sandwich cultured hepatocytes in 96-well plates following the manufacturer's instructions. A total volume of 200 μL RNA was obtained via the column elution provided in the RNeasy kit. Five μL RNA extraction was mixed with TaqMan® Fast Virus 1-Step Master Mix (Life Technologies) in a final reaction volume of 20 μL and qRT-PCR was achieved using a QuantStudio 6 Flex Real-Time PCR System (Life Technologies), following the manufacturer's instructions. β-actin mRNA expression in the SCHH was used as a house-keeping gene for the normalization of target gene expressions. The mRNA levels in SCHH treated with AhR or CAR activators were expressed by a fold change, compared to the gene expressions without the treatment. The 2^−ΔΔCt method ([Livak and Schmittgen, 2001]) was used to analyze the relative changes in gene expression, where the Ct is the cycle number at which the fluorescence in the reaction crosses the preset arbitrary threshold; the ΔCt represents the difference between the Ct target and reference and the ΔΔCt is the difference between the ΔCt of the test and the ΔCt of the preassigned control. Gene expression for each condition is expressed as a fold-change of mean ± standard deviation (SD) from three independent donors (each performed in triplicate). All primer and probe sets were purchased from Life Technologies (Table 2). When concentration-dependent induction observed, the in vitro induction mRNA data were fitted using the sigmoid 3-parameter equation in GraphPad Prism (La Jolla, CA) to estimate the in vitro concentration of inducer that produced half the maximum induction values (EC50).

ABCB1 (MDR1) = experiment: as above; assay type: cell-based
Experimental: as §1, §3

ABCB11 (BSEP) = experiment: as above; assay type: cell-based
Experimental: as §1, §3

ABCC2 (MRP2) = experiment: as above; assay type: cell-based
Experimental: as §1, §3

ABCC3 (MRP3) = experiment: as above; assay type: cell-based
Experimental: as §1, §3

ABCC4 (MRP4) = experiment: as above; assay type: cell-based
Experimental: as §1, §3

ABCC5 (MRP5) = experiment: as above; assay type: cell-based
Experimental: as §1, §3

ABCC6 (MRP6) = experiment: as above; assay type: cell-based
Experimental: as §1, §3

ABCG2 (BCRP) = experiment: as above; assay type: cell-based
Experimental: as §1, §3

SLC22A1 (OCT1) = experiment: as above; assay type: cell-based
Experimental: as §1, §3

SLCO1B1 (OATP1B1) = experiment: as above; assay type: cell-based
Experimental: as §1, §3

SLCO1B3 (OATP1B3) = experiment: as above; assay type: cell-based
Experimental: as §1, §3

SLCO2B1 (OATP2B1) = experiment: as above; assay type: cell-based
Experimental: as §1, §3

SLC10A1 (NTCP) = experiment: as above; assay type: cell-based; details: SCHH, 72 h; TCDD 50 nM, OP 50 µM, CITCO 5 µM, PB 1,000 µM (highest conc.); mean ± SD, three donors
Experimental: A RNeasy 96 Kit (Qiagen) was used to extract the total cellular RNA from sandwich cultured hepatocytes in 96-well plates following the manufacturer's instructions. A total volume of 200 μL RNA was obtained via the column elution provided in the RNeasy kit. Five μL RNA extraction was mixed with TaqMan® Fast Virus 1-Step Master Mix (Life Technologies) in a final reaction volume of 20 μL and qRT-PCR was achieved using a QuantStudio 6 Flex Real-Time PCR System (Life Technologies), following the manufacturer's instructions. β-actin mRNA expression in the SCHH was used as a house-keeping gene for the normalization of target gene expressions. The mRNA levels in SCHH treated with AhR or CAR activators were expressed by a fold change, compared to the gene expressions without the treatment. The 2^−ΔΔCt method ([Livak and Schmittgen, 2001]) was used to analyze the relative changes in gene expression, where the Ct is the cycle number at which the fluorescence in the reaction crosses the preset arbitrary threshold; the ΔCt represents the difference between the Ct target and reference and the ΔΔCt is the difference between the ΔCt of the test and the ΔCt of the preassigned control. Gene expression for each condition is expressed as a fold-change of mean ± standard deviation (SD) from three independent donors (each performed in triplicate). […] When concentration-dependent induction observed, the in vitro induction mRNA data were fitted using the sigmoid 3-parameter equation in GraphPad Prism (La Jolla, CA) to estimate the in vitro concentration of inducer that produced half the maximum induction values (EC50).

SLC15A1 (PEPT1) = experiment: as above; assay type: cell-based; details: SCHH, 72 h; TCDD 50 nM, OP 50 µM, CITCO 5 µM, PB 1,000 µM (highest conc.); mean ± SD, three donors
Excerpt: (§4) A RNeasy 96 Kit (Qiagen) was used to extract the total cellular RNA from sandwich cultured hepatocytes in 96-well plates following the manufacturer's instructions. […] The 2^−ΔΔCt method ([Livak and Schmittgen, 2001]) was used to analyze the relative changes in gene expression, where the Ct is the cycle number at which the fluorescence in the reaction crosses the preset arbitrary threshold; the ΔCt represents the difference between the Ct target and reference and the ΔΔCt is the difference between the ΔCt of the test and the ΔCt of the preassigned control. Gene expression for each condition is expressed as a fold-change of mean ± standard deviation (SD) from three independent donors (each performed in triplicate). […]

SLC16A1 (MCT1) = experiment: as above; assay type: cell-based; details: SCHH, 72 h; TCDD 50 nM, OP 50 µM, CITCO 5 µM, PB 1,000 µM (highest conc.); mean ± SD, three donors
Excerpt: as §4

SLC22A7 (OAT2) = experiment: as above; assay type: cell-based; details: SCHH, 72 h; TCDD 50 nM, OP 50 µM, CITCO 5 µM, PB 1,000 µM (highest conc.); mean ± SD, three donors
Excerpt: as §4

SLC22A9 (OAT7) = experiment: as above; assay type: cell-based; details: SCHH, 72 h; TCDD 50 nM, OP 50 µM, CITCO 5 µM, PB 1,000 µM (highest conc.); mean ± SD, three donors
Excerpt: as §4

SLC22A5 (OCTN2) = experiment: as above; assay type: cell-based; details: SCHH, 72 h; TCDD 50 nM, OP 50 µM, CITCO 5 µM, PB 1,000 µM (highest conc.); mean ± SD, three donors
Excerpt: as §4

SLC29A1 (ENT1) = experiment: as above; assay type: cell-based; details: SCHH, 72 h; TCDD 50 nM, OP 50 µM, CITCO 5 µM, PB 1,000 µM (highest conc.); mean ± SD, three donors
Excerpt: as §4

SLC29A2 (ENT2) = experiment: as above; assay type: cell-based; details: SCHH, 72 h; TCDD 50 nM, OP 50 µM, CITCO 5 µM, PB 1,000 µM (highest conc.); mean ± SD, three donors
Excerpt: as §4

SLC51A (OSTα) = experiment: as above; assay type: cell-based; details: SCHH, 72 h; TCDD 50 nM, OP 50 µM, CITCO 5 µM, PB 1,000 µM (highest conc.); mean ± SD, three donors
Excerpt: as §4

CCC1(c2ccccc2)C(=O)NC(=O)NC1=O [PB, phenobarbital]
CYP1A2 mRNA fold change (CYP1A2): 1.3 ± 0.4 fold | EC50 at 72 h (CYP2B6): 726 ± 655 µM | EC50 (CYP3A4): 343 µM | UGT1A1 mRNA fold change (UGT1A1): 4.2 fold and 4.2 ± 1.9 fold | EC50 (UGT1A1; human): 639 ± 444 µM | ABCB1 (MDR1) mRNA fold change (ABCB1 (MDR1)): 1.3 ± 0.6 fold | ABCB11 (BSEP) mRNA fold change (ABCB11 (BSEP)): 1.1 ± 0.3 fold | ABCC2 (MRP2) mRNA fold change (ABCC2 (MRP2)): 1.5 ± 0.3 fold | ABCC3 (MRP3) mRNA fold change (ABCC3 (MRP3)): 1.0 ± 0.4 fold | ABCC4 (MRP4) mRNA fold change (ABCC4 (MRP4)): 1.8 ± 0.4 fold | ABCC5 (MRP5) mRNA fold change (ABCC5 (MRP5)): 1.2 ± 0.4 fold | ABCC6 (MRP6) mRNA fold change (ABCC6 (MRP6)): 1.3 ± 0.3 fold | ABCG2 (BCRP) mRNA fold change (ABCG2 (BCRP)): 1.6 ± 0.3 fold | SLC22A1 (OCT1) mRNA fold change (SLC22A1 (OCT1)): 1.5 ± 0.6 fold | SLCO1B1 (OATP1B1) mRNA fold change (SLCO1B1 (OATP1B1)): 1.5 ± 0.8 fold | SLCO1B3 (OATP1B3) mRNA fold change (SLCO1B3 (OATP1B3)): 0.9 ± 0.2 fold | SLCO2B1 (OATP2B1) mRNA fold change (SLCO2B1 (OATP2B1)): 1.8 ± 0.9 fold | SLC10A1 (NTCP) mRNA fold change (SLC10A1 (NTCP)): 1.4 ± 0.7 fold | SLC15A1 (PEPT1) mRNA fold change (SLC15A1 (PEPT1)): 1.1 ± 0.5 fold | SLC16A1 (MCT1) mRNA fold change (SLC16A1 (MCT1)): 1.1 ± 0.2 fold | SLC22A7 (OAT2) mRNA fold change (SLC22A7 (OAT2)): 0.5 ± 0.2 fold | SLC22A9 (OAT7) mRNA fold change (SLC22A9 (OAT7)): 0.6 ± 0.2 fold | SLC22A5 (OCTN2) mRNA fold change (SLC22A5 (OCTN2)): 0.8 ± 0.3 fold | SLC29A1 (ENT1) mRNA fold change (SLC29A1 (ENT1)): 0.9 ± 0.2 fold | SLC29A2 (ENT2) mRNA fold change (SLC29A2 (ENT2)): 0.9 ± 0.3 fold | SLC51A (OSTα) mRNA fold change (SLC51A (OSTα)): 0.9 ± 0.2 fold
